Laboratory results reported in the NIST ThermoML archive (doi:10.1016/j.jct.2016.03.030).

Assay: xn = mol fraction of the nth substance listed
Settings: 100 kPa, Liquid; for viscosity: Falling or rolling sphere viscometry; for mass density: Vibrating tube method

CCCC[N+]1(C)CCOCC1.[Br-] [4-butyl-4-methylmorpholinium bromide] + O
Settings | mass density [kg/m3] | viscosity [mPa·s]
298.15 K, x1 = 0.0017 | 1002.2 | –
298.15 K, x1 = 0.0033 | 1007.1 | –
298.15 K, x1 = 0.0066 | 1016.8 | –
298.15 K, x1 = 0.0088 | 1022.9 | –
298.15 K, x1 = 0.0167 | 1043.3 | –
298.15 K, x1 = 0.034 | 1081.4 | –
298.15 K, x1 = 0.0363 | 1086 | 1.96
298.15 K, x1 = 0.0601 | 1125.3 | 3.204
298.15 K, x1 = 0.0988 | 1170.8 | 6.179
298.15 K, x1 = 0.1242 | 1192 | 9.576
298.15 K, x1 = 0.154 | 1211.4 | 15.07
298.15 K, x1 = 0.2027 | 1234.7 | 32.61
298.15 K, x1 = 0.2383 | 1247.4 | 57.4
298.15 K, x1 = 0.2569 | 1252.8 | 81.23
298.15 K, x1 = 0.3007 | 1263.9 | 159.1
303.15 K, x1 = 0.0017 | 1000.7 | –
303.15 K, x1 = 0.0033 | 1005.6 | –
303.15 K, x1 = 0.0066 | 1015.2 | –
303.15 K, x1 = 0.0088 | 1021.3 | –
303.15 K, x1 = 0.0167 | 1041.5 | –
303.15 K, x1 = 0.034 | 1079.1 | –
303.15 K, x1 = 0.0363 | 1083.7 | 1.715
303.15 K, x1 = 0.0601 | 1122.6 | 2.745
303.15 K, x1 = 0.0988 | 1167.7 | 5.16
303.15 K, x1 = 0.1242 | 1188.7 | 7.888
303.15 K, x1 = 0.154 | 1208.1 | 12.19
303.15 K, x1 = 0.2027 | 1231.3 | 25.31
303.15 K, x1 = 0.2383 | 1244 | 42.75
303.15 K, x1 = 0.2569 | 1249.4 | 60.27
303.15 K, x1 = 0.3007 | 1260.5 | 113.5
308.15 K, x1 = 0.0017 | 999.1 | –
308.15 K, x1 = 0.0033 | 1003.9 | –
308.15 K, x1 = 0.0066 | 1013.4 | –
308.15 K, x1 = 0.0088 | 1019.5 | –
308.15 K, x1 = 0.0167 | 1039.5 | –
308.15 K, x1 = 0.034 | 1076.7 | –
308.15 K, x1 = 0.0363 | 1081.3 | 1.5
308.15 K, x1 = 0.0601 | 1119.7 | 2.367
308.15 K, x1 = 0.0988 | 1164.5 | 4.353
308.15 K, x1 = 0.1242 | 1185.4 | 6.566
308.15 K, x1 = 0.154 | 1204.7 | 9.969
308.15 K, x1 = 0.2027 | 1227.9 | 20
308.15 K, x1 = 0.2383 | 1240.7 | 32.82
308.15 K, x1 = 0.2569 | 1246.1 | 45.77
308.15 K, x1 = 0.3007 | 1257.2 | 82.89
313.15 K, x1 = 0.0017 | 997.2 | –
313.15 K, x1 = 0.0033 | 1002 | –
313.15 K, x1 = 0.0066 | 1011.4 | –
313.15 K, x1 = 0.0088 | 1017.4 | –
313.15 K, x1 = 0.0167 | 1037.3 | –
313.15 K, x1 = 0.034 | 1074.2 | –
313.15 K, x1 = 0.0363 | 1078.7 | 1.323
313.15 K, x1 = 0.0601 | 1116.8 | 2.061
313.15 K, x1 = 0.0988 | 1161.3 | 3.716
313.15 K, x1 = 0.1242 | 1182.1 | 5.497
313.15 K, x1 = 0.154 | 1201.3 | 8.279
313.15 K, x1 = 0.2027 | 1224.5 | 16.07
313.15 K, x1 = 0.2383 | 1237.3 | 25.69
313.15 K, x1 = 0.2569 | 1242.7 | 35.46
313.15 K, x1 = 0.3007 | 1253.9 | 62.18
318.15 K, x1 = 0.0017 | 995.2 | –
318.15 K, x1 = 0.0033 | 999.9 | –
318.15 K, x1 = 0.0066 | 1009.3 | –
318.15 K, x1 = 0.0088 | 1015.3 | –
318.15 K, x1 = 0.0167 | 1034.9 | –
318.15 K, x1 = 0.034 | 1071.5 | –
318.15 K, x1 = 0.0363 | 1076 | 1.175
318.15 K, x1 = 0.0601 | 1113.8 | 1.81
318.15 K, x1 = 0.0988 | 1158 | 3.204
318.15 K, x1 = 0.1242 | 1178.7 | 4.65
318.15 K, x1 = 0.154 | 1197.9 | 6.951
318.15 K, x1 = 0.2027 | 1221.1 | 13.12
318.15 K, x1 = 0.2383 | 1233.9 | 20.44
318.15 K, x1 = 0.2569 | 1239.3 | 28.04
318.15 K, x1 = 0.3007 | 1250.6 | 47.76
323.15 K, x1 = 0.0017 | 993 | –
323.15 K, x1 = 0.0033 | 997.7 | –
323.15 K, x1 = 0.0066 | 1007 | –
323.15 K, x1 = 0.0088 | 1012.9 | –
323.15 K, x1 = 0.0167 | 1032.5 | –
323.15 K, x1 = 0.034 | 1068.8 | –
323.15 K, x1 = 0.0363 | 1073.2 | 1.039
323.15 K, x1 = 0.0601 | 1110.8 | 1.578
323.15 K, x1 = 0.0988 | 1154.6 | 2.745
323.15 K, x1 = 0.1242 | 1175.3 | 3.912
323.15 K, x1 = 0.154 | 1194.4 | 5.805
323.15 K, x1 = 0.2027 | 1217.7 | 10.72
323.15 K, x1 = 0.2383 | 1230.5 | 16.36
323.15 K, x1 = 0.2569 | 1235.9 | 22.35
323.15 K, x1 = 0.3007 | 1247.2 | 36.9
328.15 K, x1 = 0.0017 | 990.6 | –
328.15 K, x1 = 0.0033 | 995.3 | –
328.15 K, x1 = 0.0066 | 1004.5 | –
328.15 K, x1 = 0.0088 | 1010.4 | –
328.15 K, x1 = 0.0167 | 1029.8 | –
328.15 K, x1 = 0.034 | 1065.9 | –
328.15 K, x1 = 0.0363 | 1070.1 | 0.923
328.15 K, x1 = 0.0601 | 1107.6 | 1.387
328.15 K, x1 = 0.0988 | 1151.2 | 2.377
328.15 K, x1 = 0.1242 | 1171.8 | 3.323
328.15 K, x1 = 0.154 | 1191 | 4.888
328.15 K, x1 = 0.2027 | 1214.3 | 8.882
328.15 K, x1 = 0.2383 | 1227.1 | 13.28
328.15 K, x1 = 0.2569 | 1232.5 | 18.01
328.15 K, x1 = 0.3007 | 1243.9 | 29.03
333.15 K, x1 = 0.0017 | 988.1 | –
333.15 K, x1 = 0.0033 | 992.7 | –
333.15 K, x1 = 0.0066 | 1001.9 | –
333.15 K, x1 = 0.0088 | 1007.8 | –
333.15 K, x1 = 0.0167 | 1027.1 | –
333.15 K, x1 = 0.034 | 1062.9 | –
333.15 K, x1 = 0.0363 | 1067.3 | 0.83
333.15 K, x1 = 0.0601 | 1104.4 | 1.233
333.15 K, x1 = 0.0988 | 1147.8 | 2.082
333.15 K, x1 = 0.1242 | 1168.4 | 2.867
333.15 K, x1 = 0.154 | 1187.5 | 4.16
333.15 K, x1 = 0.2027 | 1210.8 | 7.465
333.15 K, x1 = 0.2383 | 1223.7 | 10.98
333.15 K, x1 = 0.2569 | 1229.1 | 14.86
333.15 K, x1 = 0.3007 | 1240.5 | 23.47
338.15 K, x1 = 0.0017 | 985.4 | –
338.15 K, x1 = 0.0033 | 990 | –
338.15 K, x1 = 0.0066 | 999.2 | –
338.15 K, x1 = 0.0088 | 1005 | –
338.15 K, x1 = 0.0167 | 1024.2 | –
338.15 K, x1 = 0.034 | 1059.9 | –
338.15 K, x1 = 0.0363 | 1064.3 | 0.751
338.15 K, x1 = 0.0601 | 1101.1 | 1.106
338.15 K, x1 = 0.0988 | 1144.3 | 1.836
338.15 K, x1 = 0.1242 | 1164.8 | 2.502
338.15 K, x1 = 0.154 | 1184 | 3.568
338.15 K, x1 = 0.2027 | 1207.3 | 6.337
338.15 K, x1 = 0.2383 | 1220.3 | 9.093
338.15 K, x1 = 0.2569 | 1225.8 | 12.32
338.15 K, x1 = 0.3007 | 1237.2 | 19.19
343.15 K, x1 = 0.0017 | 982.6 | –
343.15 K, x1 = 0.0033 | 987.2 | –
343.15 K, x1 = 0.0066 | 996.3 | –
343.15 K, x1 = 0.0088 | 1002.1 | –
343.15 K, x1 = 0.0167 | 1021.2 | –
343.15 K, x1 = 0.034 | 1056.7 | –
343.15 K, x1 = 0.0363 | 1061.1 | 0.685
343.15 K, x1 = 0.0601 | 1097.5 | 0.992
343.15 K, x1 = 0.0988 | 1140.8 | 1.633
343.15 K, x1 = 0.1242 | 1161.3 | 2.288
343.15 K, x1 = 0.154 | 1180.4 | 3.149
343.15 K, x1 = 0.2027 | 1203.8 | 5.442
343.15 K, x1 = 0.2383 | 1216.8 | 7.452
343.15 K, x1 = 0.2569 | 1222.4 | 10.42
343.15 K, x1 = 0.3007 | 1233.8 | 15.92
